Results from patent publication US20010011146A1, “NEUROPROTECTIVE COMPOUNDS AND USES THEREOF” (priority 1997, published 2001).
“Also recorded” adds a separate entry of the source. Like-named read-outs stand apart in the source and are kept apart here. Values belong to the molecule of their own block, whether it stands above or below them.

Legend:
[1] = system: CA1 hippocampal neurons; assay: Four-vessel occlusion (4-VO) ischemia, CA1 neuronal density measurement; type: in vivo, male Wister rats
Description: (§1) Four-vessel occlusion (“4-VO”) ischemia. All procedures regarding animals were in compliance with AALAC guidelines set forth in the PHS animal “Guide in the Care and Use of Laboratory Animals”. Animals (male Wister rats, 200-250 gr, Hill Top, Scottsdale) were anesthetized with a mixture of halothane (1%), oxygen, and nitrogen, and surgically prepared for 4-VO according to the method described by Pulsinell, W. A., et al., “Regional Cerebral Blood Flow and Glucose Metabolism Following Transient Forebrain Ischemia,” Ann. Neurol., 11:499-502 (1982), which is hereby incorporated by reference. Surgical procedures included placing reversible clasps around the common carotid arteries and placing a suture around the neck muscles to control collateral blood flow to the brain. Food was withheld overnight, but water was freely available. On the following day, 10 minutes of 4-VO ischemia was induced by tightening the clasps around the common carotid arteries and the suture. In order to minimize variability, the following criteria was set: loss of righting reflex and bilateral pupil dilation during the entire ischemic period, and 20±5 minutes of postischemic coma after 10 minutes of ischemia. Only animals that meet these criteria were included in the study. The body temperature of all animals was kept at 37.5±0.5° C. by a thermocouple-regulated heating lamp during ischemia and reperfusion until the animals regained consciousness and established thermo-homeostasis.
(§2) NAMDA administration. Animals subject to 10 minutes of ischemia randomly were divided into 4 groups. Animals received one of the following triple intraperitoneal injections: i) saline at 0, 0.5, and 2 hours, ii) NAMDA (10 mg/kg) at 0, 0.5, and 2 hours, iii) NAMDA at 1, 1.5, and 3 hours, and iv) NAMDA at 2, 2.5, and 4 hours of cerebral reperfusion. To examine whether NAMDA caused hypothermia, the animals' body temperatures were recorded for up to the first 4 hours of cerebral reperfusion. Sham-operated animals that underwent surgery and carotid manipulation were used as non-ischemic controls.
Tissue preparation. […] Some sections were […] on slides and stained with cresyl violet to measure neuronal density. […]
Cell density measurement. […] Neurons were counted in the frame if part or all of the nucleus was within the frame and not in contact with the left or bottom border of the frame. […] The number of neurons counted were divided by the total volume sampled to generate the density of neurons in CA1. Mean neuron density was calculated for the left and right hippocampus (side) and for the anterior and posterior regions for each animal. […]

[2] = Body temperature recording during cerebral reperfusion (4-VO ischemic animals); type: in vivo, male Wister rats; settings: for Temperature recording during cerebral reperfusion: mean ± s.e.m., in °C (unit assumed)
Description: as §1, §2
The animals' body temperature was kept at 37.5±0.5° C. during ischemia and first half hour of cerebral reperfusion when animals were typically stayed in postischemic coma. Temperatures were recorded soon after animals regained consciousness and recorded for up to 4 hours of cerebral reperfusion (Table 1).

[3] = system: NADPH-diaphorase activity in CA1 hippocampus; assay: NADPH-diaphorase histochemistry in postischemic CA1 hippocampus; type: in vivo, male Wister rats; settings: triple i.p. injection 10 mg/kg during reperfusion
Description: as §2
Tissue preparation. Animals were anesthetized with sodium pentobarbital (120 mg/kg) and perfused transcardially with saline containing 0.5% sodium nitrite and 10 U/ml heparin sulfate followed by 4% cold formaldehyde in 0.1 M sodium phosphate buffer (PB, pH 7.2). The brains were further postfixed for 2 hours and stored in a 30% sucrose solution overnight. Fixed brains were sectioned at 30 μm on a sliding microtome. For each animal, the dorsal hippocampus between bregma −2.5 mm and −4.0 mm was sampled. Some sections were […] on slides and stained with cresyl violet to measure neuronal density. Others were used for free floating NADPH-diaphorase histochemistry.
NADPH-Diaphorase histochemistry. […]

[4] = system: BV-2 microglia cells; assay: Nitrite measurement (Griess reaction) in BV-2 microglia cells; type: cell-based, murine; settings: 6 hours, 0.05-5 mM
Description: Nitrite measurement on microylial cell. To measure nitrite level, a NO oxidative metabolite, murine BV-2 cells, were used. […] The cells were grown and maintained in Dulbeccos Modified Eagle medium (“DMEM”, Gibco, Gaithersburg, Md.) supplemented with 10% fetal calf serum and penicillin/streptomycine at 37° C. in a humidified incubator under 5% CO2. BV-2 microglia cells were cultured and grown in 24 well culture plates and treated for 6 hours with 0. 0.05, 0.5, 2, or 5 mM or NAMDA either in the presence or absence of lipopolysaccharide (LPS, 0.2 μg/ml).
After the treatment, 200 μl aliquots of cell supernatant from each well were mixed with 100 μl of Griess reagent (1 % sulphanilamide, 0.1% naphthylethylenediamine dihydrochloride, 2.5% H3PO4) in 96 well microtiter plates. The mixtures were incubated for 10 minutes to form a chromophore and the absorbance was read at 540 nm using a plate reader. The amount of nitrite accumulation from media was determined against a standard curve generated by a known concentration of […]. After removal of the supernatant for the nitrite assay, cells were immediately washed with 0.1M PB, fixed with 4% formaldehyde for 30 minutes, and washed with 0.1M PB for 5 minutes. NADPH-diaphorase histochemical staining was performed as described above. […]

[5] = system: BV-2 cells; assay: Cell number count by tryphan exclusion in BV-2 cells; type: cell-based, murine; settings: with or without LPS; end of 6 hours treatment; up to 5 mM
[6] = system: NADPH-diaphorase activity in BV-2 cells; assay: NADPH-diaphorase histochemical staining in BV-2 cells; type: cell-based, murine; settings: 5 mM
Description: NADPH-Diaphorase histochemistry. The histochemical staining was performed according to the method described by Vincent, et al., “Histochemical Mapping of Nitric Oxide Synthase in the Rat Brain,” Neuroscience, 46:755-784 (1992), which is hereby incorporated by reference). Sections containing dorsal hippocampus are washed twice in 0.1 M phosphate buffer (“PB”) and then processed for NADPH-diaphorase histochemistry. To establish a temporal profile of NADPH-diaphorase staining during postischemic period, sections were obtained from animals that were perfuse fixed at 12 hours, 24 hours, 48 hours, 72 hours, and 7 days after ischemia. The sections were then incubated for 1 hour at 37° C. with a solution containing 1 mg/ml of NADPH, 0.25 mg/ml of nitro blue tetrazolium (“NBT”), and 0.3% Triton X-100 in 0.1 M PB. The reaction was terminated by the addition of cold 0.1M PB. […]
After the treatment, 200 μl aliquots of cell supernatant from each well were mixed with 100 μl of Griess reagent (1 % sulphanilamide, 0.1% naphthylethylenediamine dihydrochloride, 2.5% H3PO4) in 96 well microtiter plates. The mixtures were incubated for 10 minutes to form a chromophore and the absorbance was read at 540 nm using a plate reader. The amount of nitrite accumulation from media was determined against a standard curve generated by a known concentration of NaNO3. […]

[7] = system: CA1 hippocampal neurons; settings: Cho et al. 1997, cited from earlier work
[8] = background statement; cited from earlier work

Effect on body temperature versus saline-treated ischemic group ([2]; 10 mg/kg triple i.p., any time point up to 4 hours of reperfusion, ANOVA, Newman-Keuls): no differences in body temperatures
Temperature recording during cerebral reperfusion ([2]; NC-111 (0, 0.5, 2 h), n = 9, postischemic time 1 hour): 37.6 ± 0.2
Temperature recording during cerebral reperfusion ([2]; NC-111 (0, 0.5, 2 h), n = 9, postischemic time 1.5 hour): 37.3 ± 0.1
Temperature recording during cerebral reperfusion ([2]; NC-111 (0, 0.5, 2 h), n = 9, postischemic time 2 hour): 37.3 ± 0.1
Temperature recording during cerebral reperfusion ([2]; NC-111 (0, 0.5, 2 h), n = 9, postischemic time 3 hour): 37.5 ± 0.2
Temperature recording during cerebral reperfusion ([2]; NC-111 (0, 0.5, 2 h), n = 9, postischemic time 4 hour): 37.2 ± 0.1
Temperature recording during cerebral reperfusion ([2]; NC-111 (1 h) group (injections at 1, 1.5, 3 h), n = 7, postischemic time 0.5 hour): 37.9 ± 0.2
Temperature recording during cerebral reperfusion ([2]; NC-111 (1 h) group, n = 7, postischemic time 1 hour): 36.9 ± 0.1
Temperature recording during cerebral reperfusion ([2]; NC-111 (1 h) group, n = 7, postischemic time 1.5 hour): 37.0 ± 0.1
Temperature recording during cerebral reperfusion ([2]; NC-111 (1 h) group, n = 7, postischemic time 2 hour): 37.4 ± 0.1
Temperature recording during cerebral reperfusion ([2]; NC-111 (1 h) group, n = 7, postischemic time 3 hour): 37.5 ± 0.2
Temperature recording during cerebral reperfusion ([2]; NC-111 (1 h) group, n = 7, postischemic time 4 hour): 37.5 ± 0.3
Temperature recording during cerebral reperfusion ([2]; NC-111 (2 hr) group (injections at 2, 2.5, 4 h), n = 6, postischemic time 0.5 hour): 38.3 ± 0.2
Temperature recording during cerebral reperfusion ([2]; NC-111 (2 hr) group, n = 6, postischemic time 1 hour): 36.8 ± 0.3
Temperature recording during cerebral reperfusion ([2]; NC-111 (2 hr) group, n = 6, postischemic time 1.5 hour): 37.2 ± 0.4
Temperature recording during cerebral reperfusion ([2]; NC-111 (2 hr) group, n = 6, postischemic time 2 hour): 37.4 ± 0.2
Temperature recording during cerebral reperfusion ([2]; NC-111 (2 hr) group, n = 6, postischemic time 3 hour): 37.3 ± 0.2
Temperature recording during cerebral reperfusion ([2]; NC-111 (2 hr) group, n = 6, postischemic time 4 hour): 37.9 ± 0.3
Temperature recording during cerebral reperfusion ([2]; NC-111 (injections at 0, 0.5, 2 h of reperfusion), n = 9, postischemic time 0.5 hour): 37.7 ± 0.2
Structure (SMILES): COc1cc(CCNC(C)=O)ccc1O [NAMDA, N-acetyl-3-O-methyldopamine]
CA1 neuronal density / protection of CA1 neurons (of non-ischemic control) ([1]; 10 min 4-VO ischemia, 10 mg/kg i.p. at 0, 0.5, 2 h (immediately after reperfusion), measured one week later): 45%
Protection of neurons in CA1 hippocampus ([1]; 10 min 4-VO ischemia, NAMDA treatment versus saline, one week later, Fisher's PLSD p<0.0001): significantly protected neurons in CA1 hippocampus
Neuron density in CA1 at 24 hours postischemic ([1]; 10 min ischemia, NAMDA-ischemic n=3, 24 hours postischemic): 18.3±2.2 neurons/10^5 μm^3
Protection of CA1 neurons with delayed administration ([1]; administration delayed up to 2 hours after ischemia, one week later): protect CA1 neurons despite delaying the treatment up to 2 hours; also recorded: significant protection of CA1 neurons
Ischemia-induced NADPH-diaphorase staining in CA1 ([3]; 24 hours postischemic): markedly reduced
Ischemia-induced NADPH-diaphorase staining in CA1 ([3]; 48 hours after ischemia): attenuation of the staining was persisted
Nitrite accumulation in cell supernatant ([4]; absence of LPS): did not alter nitrite accumulation
Nitrite accumulation in cell supernatant ([4]; presence of LPS 0.2 μg/ml, ANOVA p<0.001): significantly reduced nitrite accumulation in a dose-dependent manner
Total number of cells (cell viability) [5]: did not affect the total number of cells
Baseline NADPH-diaphorase staining intensity ([6]; absence of LPS): not affected
LPS-induced NADPH-diaphorase activity (staining) ([6]; presence of LPS): attenuated

Structure (SMILES): COc1ccc2[nH]cc(CCNC(C)=O)c2c1 [melatonin, Melatonin]
Protection of CA1 neurons ([7]; administration starting immediately after / during reperfusion, 10 min transient forebrain ischemia): significantly protect CA1 neurons; also recorded: protects the CA1 hippocampal neurons
Protection of CA1 neurons with delayed administration ([7]; delay of one hour): did not offer significant protection
Protection of the neurons with delayed administration ([7]; delay of one to two hours in administration): significantly decreased protection of the neurons
Solubility in aqueous media [8]: insoluble in aqueous media
